This is an account of results in ChEMBL document CHEMBL1127262, “Novel HIV01 protease inhibitors containing A -hydroxy sulfide isostere” (Bioorg Med Chem Lett, 1994).

For test [1], the target named is Human immunodeficiency virus type 1 protease (Human immunodeficiency virus 1, UniProt Q72874). Nature of the test: Compound was tested for inhibitory activity against isolated HIV-1 protease.
Test [2] has as its target Human immunodeficiency virus type 1 protease (Human immunodeficiency virus 1) (UniProt Q72874). Kind of test: Percent inhibition against isolated HIV-1 protease at a concentration of 1 ug/ml.
Another test relates to CCRF-CEM. Nature of the test: Compound was tested for whole cell antiviral activity against CEM cell lines. The conditions noted are these: Homo sapiens. The test is classed as functional, cell-based.
Another test deals with MT2. Nature of the test: Compound was tested for whole cell antiviral activity against MT2 cell lines. The test is classed as functional, cell-based. The conditions noted are these: Homo sapiens.

In brackets after ≈: the same amount, converted by molar mass.

The term IC50 denotes the midpoint of a concentration-inhibition curve. Read a low IC50 as greater potency. With `CC(C)(C)NC(=O)c1ccccc1SC[C@@H](O)[C@H](Cc1ccccc1)NC(=O)[C@H](Cc1c[nH]cn1)NC(=O)c1ccc2ccccc2n1`, in test [1], the IC50 was 208 nM. Broadly, the inhibition is the relative decrease from the control value, in per cent. For the molecule `CC(C)(C)NC(=O)c1ccccc1[S+]([O-])C[C@@H](O)[C@H](Cc1ccccc1)NC(=O)[C@H](CC(N)=O)NC(=O)c1ccc2ccccc2n1` (stereo in doubt; 16b), the inhibition in test [2] worked out at 28%. The same measure, in the same setting: next, `CC(C)(C)NC(=O)c1ccccc1[S+]([O-])C[C@@H](O)[C@H](Cc1ccccc1)NC(=O)[C@H](CC(N)=O)NC(=O)c1ccc2ccccc2n1` (stereo in doubt; 16a): 69%. Regarding `CC(C)(C)NC(=O)c1ccccc1SC[C@H](O)[C@H](Cc1ccccc1)NC(=O)[C@H](CC(N)=O)NC(=O)c1ccc2ccccc2n1`, the figures for the IC50 (in the test on CCRF-CEM; in test [1]; in the test with MT2) were 4.99 µg/mL (≈ 7.78 µM), 56.1 nM and 4.38 µg/mL (≈ 6.82 µM), respectively. For the molecule `CC(C)(C)NC(=O)c1ccccc1S(=O)(=O)C[C@@H](O)[C@H](Cc1ccccc1)NC(=O)[C@H](CC(N)=O)NC(=O)c1ccc2ccccc2n1`, in test [1], the IC50 was 509 nM. As for `CC(C)(C)NC(=O)c1ccccc1SC[C@@H](O)[C@H](Cc1ccccc1)NC(=O)[C@H](CC(N)=O)NC(=O)c1ccc2ccccc2n1`, the 50% inhibitory concentration (IC50) in the test on CCRF-CEM is 0.48 µg/mL (≈ 0.748 µM); in test [1], 13.4 nM; with MT2, 0.41 µg/mL (≈ 0.639 µM).

`CC(C)(C)NC(=O)c1ccccc1C[C@@H](O)[C@H](Cc1ccccc1)NC(=O)[C@H](CC(N)=O)NC(=O)c1ccc2ccccc2n1`: the values for the IC50 in the test with CCRF-CEM and in the test with MT2 were 0.0137 µg/mL (≈ 0.0224 µM) and 0.0317 µg/mL (≈ 0.052 µM), respectively.
